Legend:
[1] = Concentration required to inhibit human recombinant Poly (ADP-ribose) polymerase 1 was determined using cell protection assay
[2] = Concentration required to inhibit human recombinant PARP-1 was determined using cell protection assay
[3] = Concentration required to inhibit human recombinant Poly (ADP-ribose) polymerase 1 was determined using cell protection assay; remark: listed apart in the source

EC50 [1] | EC50 [2] | SMILES | other results
0.5 µM | – | O=C(CCn1c2c(c(=O)[nH]c1=O)CSCC2)NCC(=O)c1ccc(Cl)cc1 [N-[2-(4-Chloro-phenyl)-2-oxo-ethyl]-3-(2,4-dioxo-3,4,7,8-tetrahydro-2H,5H-thiopyrano[4,3-d]pyrimidin-1-yl)-propionamide] | –
– | 0.2 µM | O=C(CCn1c2c(c(=O)[nH]c1=O)CSCC2)NCC(=O)c1ccc(OC(F)F)cc1 [N-[2-(4-Difluoromethoxy-phenyl)-2-oxo-ethyl]-3-(2,4-dioxo-3,4,7,8-tetrahydro-2H,5H-thiopyrano[4,3-d]pyrimidin-1-yl)-propionamide] | –
– | 3.5 µM | O=C(CCn1c2c(c(=O)[nH]c1=O)CSCC2)NCC(=O)c1cccc(Br)c1 [N-[2-(3-Bromo-phenyl)-2-oxo-ethyl]-3-(2,4-dioxo-3,4,7,8-tetrahydro-2H,5H-thiopyrano[4,3-d]pyrimidin-1-yl)-propionamide] | –
– | 0.5 µM | O=C(CCn1c2c(c(=O)[nH]c1=O)CSCC2)NCC(=O)c1ccc(-c2ccccc2)cc1 [N-(2-Biphenyl-4-yl-2-oxo-ethyl)-3-(2,4-dioxo-3,4,7,8-tetrahydro-2H,5H-thiopyrano[4,3-d]pyrimidin-1-yl)-propionamide] | –
– | 0.08 µM | COc1ccc(C(=O)CNC(=O)CCn2c3c(c(=O)[nH]c2=O)CSCC3)cc1 [3-(2,4-dioxo-2,3,4,5,7,8-hexahydro-1H-thiopyrano[4,3-d]pyrimidin-1-yl)-N-(2-(4-methoxyphenyl)-2-oxoethyl)propanamide] | –
0.08 µM | – | O=C(CCn1c2c(c(=O)[nH]c1=O)CSCC2)NCC(=O)c1ccc2ccccc2c1 [3-(2,4-Dioxo-3,4,7,8-tetrahydro-2H,5H-thiopyrano[4,3-d]pyrimidin-1-yl)-N-(2-naphthalen-2-yl-2-oxo-ethyl)-propionamide] | –

Further lines, the compound ahead of its results:

SMILES | EC50 [1] | EC50 [2] | other results
O=C(CCn1c2c(c(=O)[nH]c1=O)CSCC2)NCC(=O)N1CCN(c2cc(C(F)(F)F)ccn2)CC1 [3-(2,4-Dioxo-3,4,7,8-tetrahydro-2H,5H-thiopyrano[4,3-d]pyrimidin-1-yl)-N-{2-oxo-2-[4-(4-trifluoromethyl-pyridin-2-yl)-piperazin-1-yl]-ethyl}-propionamide] | 0.1 µM | – | –
Nc1cccnc1N1CCN(C(=O)CNC(=O)CCn2c3c(c(=O)[nH]c2=O)CSCC3)CC1 [N-{2-[4-(3-Amino-pyridin-2-yl)-piperazin-1-yl]-2-oxo-ethyl}-3-(2,4-dioxo-3,4,7,8-tetrahydro-2H,5H-thiopyrano[4,3-d]pyrimidin-1-yl)-propionamide] | 0.7 µM | – | –
O=C(CCn1c2c(c(=O)[nH]c1=O)CSCC2)NCC(=O)N1CCN(c2ncccc2C(F)(F)F)CC1 [3-(2,4-Dioxo-3,4,7,8-tetrahydro-2H,5H-thiopyrano[4,3-d]pyrimidin-1-yl)-N-{2-oxo-2-[4-(3-trifluoromethyl-pyridin-2-yl)-piperazin-1-yl]-ethyl}-propionamide] | – | 0.1 µM | –
O=C(CCn1c2c(c(=O)[nH]c1=O)CSCC2)NCC(=O)N1CCN(c2ccccn2)CC1 [3-(2,4-Dioxo-3,4,7,8-tetrahydro-2H,5H-thiopyrano[4,3-d]pyrimidin-1-yl)-N-[2-oxo-2-(4-pyridin-2-yl-piperazin-1-yl)-ethyl]-propionamide] | 0.1 µM | – | –
Nc1cccc(-c2ccc(C(=O)CNC(=O)CCn3c4c(c(=O)[nH]c3=O)CSCC4)cc2)c1 [N-[2-(3'-Amino-biphenyl-4-yl)-2-oxo-ethyl]-3-(2,4-dioxo-3,4,7,8-tetrahydro-2H,5H-thiopyrano[4,3-d]pyrimidin-1-yl)-propionamide] | 0.07 µM | – | –
O=C(CCn1c2c(c(=O)[nH]c1=O)CSCC2)NCC(=O)N1CCN(c2ccccc2)CC1 [3-(2,4-Dioxo-3,4,7,8-tetrahydro-2H,5H-thiopyrano[4,3-d]pyrimidin-1-yl)-N-[2-oxo-2-(4-phenyl-piperazin-1-yl)-ethyl]-propionamide] | – | – | EC50 [3]: 0.1 µM

— BindingDB's records for doi:10.1016/s0960-894x(02)00602-9 (Bayer, 2002)
